Legend:
Test in all cases: Herbicidal activity, foliar application of single compounds (Test Examples 1 to 5)
Assay type in all cases: in vivo
Parameters in all cases: key: 0 means the state where the plants are as sound as before the application of the active compound; 1, 2, 3 and 4 mean varying degrees of the enfeebled state of the plants between 0 and 5; 1, 2, 3 and 4 mean varying degrees of the enfeebled state of the plants between 0 and 5; 1, 2, 3 and 4 mean varying degrees of the enfeebled state of the plants between 0 and 5; 1, 2, 3 and 4 mean varying degrees of the enfeebled state of the plants between 0 and 5; 5 is the state where the plants are withered or killed by application of the active compound
Settings in all cases: 3 weeks after application
[1] = tested on: Abutilon theophrosti
Protocol: (§1) In these examples, all parts means parts by weight, unless otherwise noted. The herbicidal activity was evaluated on a scale of 6 degrees. In other words, 0 means the state where the plants are as sound as before the application of the active compound, while 5 is the state where the plants are withered or killed by application of the active compound, and 1, 2, 3 and 4 mean varying degrees of the enfeebled state of the plants between 0 and 5.
(§2) The diphenyl ethers shown in Table 2 were added to 5000 parts of a mixture of acetone and water (1 : 1 by volume), and 2.6 parts of a nonionic surfactant (Sorpol 2680, tradename) was added to form a solution, so that the ether becomes the prescribed amount in each solution.
(§3) Seeds of plants were sown in the soil, cultivated for 2 to 3 weeks, after germination, then the plants were used for the tests.
(§4) The prepared solution was applied to these plants at the prescribed rate of application in total, then the plants were continuously cultivated for 3 weeks without applying the solution.
(§5) The alphabetical symbols in Tables 2 and 3 represent the following plants, respectively: a: Digitaria adscendens b: Setaria viridis c: Sorghum halepense d: Chenopodium album var. centrorubrum e: Amaranthus mangostanus f: Astragalus sinicus g: Abutilon theophrosti h: Solanum nigrum i: Xanthium strumarium j: Soybean; Glycine max k: Corn; Zea mays Table 2

[2] = tested on: Amaranthus mangostanus
Protocol: as §1, §2, §3, §4, §5

[3] = tested on: Astragalus sinicus
Protocol: as §1, §2, §3, §4, §5

[4] = tested on: Chenopodium album var. centrorubrum
Protocol: as §1, §2, §3, §4, §5

[5] = tested on: Corn; Zea mays
Protocol: as §1, §2, §3, §4, §5

[6] = tested on: Digitaria adscendens
Protocol: as §1, §2, §3, §4, §5

[7] = tested on: Setaria viridis
Protocol: as §1, §2, §3, §4, §5

[8] = tested on: Solanum nigrum
Protocol: as §1, §2, §3, §4, §5

[9] = tested on: Sorghum halepense
Protocol: as §1, §2, §3, §4, §5

[10] = tested on: Soybean; Glycine max
Protocol: as §1, §2, §3, §4, §5

[11] = tested on: Xanthium strumarium
Protocol: as §1, §2, §3, §4, §5

[12] = Rate of Application 0.016 kg/ha
[13] = Rate of Application 0.031 kg/ha
[14] = Rate of Application 0.008 kg/ha

Structure (SMILES) | herbicidal activity, Plants g [1, 13] | herbicidal activity, Plants e [2, 13] | herbicidal activity, Plants f [3, 13] | herbicidal activity, Plants d [4, 13] | herbicidal activity, Plants k [5, 13] | herbicidal activity, Plants a [6, 13] | herbicidal activity, Plants b [7, 13] | herbicidal activity, Plants h [8, 13] | herbicidal activity, Plants c [9, 13] | herbicidal activity, Plants j [10, 13] | herbicidal activity, Plants i [11, 13] | herbicidal activity, Plants g [1, 14] | herbicidal activity, Plants e [2, 14] | herbicidal activity, Plants f [3, 14] | herbicidal activity, Plants d [4, 14] | herbicidal activity, Plants k [5, 14] | herbicidal activity, Plants a [6, 14] | herbicidal activity, Plants b [7, 14] | herbicidal activity, Plants h [8, 14] | herbicidal activity, Plants c [9, 14] | also measured
COC(=O)C(C)Oc1cc(Oc2ccc(C(F)(F)F)cc2Cl)ccc1C#N (racemic) [Racemic (1), racemic methyl α-[2-cyano-5-(2-chloro-4-trifluoromethylphenoxy)phenoxy]propionate, reference compound] | 5 | 5 | 5 | 5 | 5 | 4 | 3 | 5 | 5 | 4 | 5 |  |  |  |  |  |  |  |  |  | herbicidal activity, Plants g [1, 12]: 5; herbicidal activity, Plants e [2, 12]: 5; herbicidal activity, Plants f [3, 12]: 5; herbicidal activity, Plants d [4, 12]: 5; herbicidal activity, Plants k [5, 12]: 4; herbicidal activity, Plants a [6, 12]: 3; herbicidal activity, Plants b [7, 12]: 2; herbicidal activity, Plants h [8, 12]: 5; herbicidal activity, Plants c [9, 12]: 2; herbicidal activity, Plants j [10, 12]: 4; herbicidal activity, Plants i [11, 12]: 5
CCOC(=O)C(C)Oc1cc(Oc2ccc(C(F)(F)F)cc2Cl)ccc1C#N (stereo not drawn) [(2), ethyl α-[2-cyano-5-(2-chloro-4-trifluoromethylphenoxy)phenoxy]propionate] | 5 | 5 | 5 | 5 | 5 | 4 | 4 | 5 | 5 | 5 | 5 | 5 | 3 | 4 | 5 | 4 | 3 | 3 | 5 | 3 | herbicidal activity, Plants j [10, 14]: 4; herbicidal activity, Plants i [11, 14]: 5
CCCCOC(=O)C(C)Oc1cc(Oc2ccc(C(F)(F)F)cc2Cl)ccc1C#N (stereo not drawn) [(3), n-Butyl α-[2-cyano-5-(2-chloro-4-trifluoromethylphenoxy)phenoxy]propionate] | 5 | 5 | 5 | 5 | 5 | 5 | 4 | 5 | 5 | 5 | 5 | 5 | 5 | 4 | 5 | 2 | 3 | 3 | 5 | 2 | herbicidal activity, Plants j [10, 14]: 3; herbicidal activity, Plants i [11, 14]: 4
CCOC(=O)C(C)Oc1cc(Oc2ncc(C(F)(F)F)cc2Cl)ccc1C#N (stereo not drawn) [(37), Ethyl α-[2-cyano-5-(3-chloro-5-trifluoromethyl-2-pyridyloxy)phenoxy]propionate] | 5 | 5 | 4 | 5 | 3 | 4 | 4 | 4 | 5 | 4 | 5 | 5 | 5 | 3 | 3 | 2 | 3 | 3 | 4 | 3 | herbicidal activity, Plants j [10, 14]: 3; herbicidal activity, Plants i [11, 14]: 4
COC(=O)[C@H](C)Oc1cc(Oc2ccc(C(F)(F)F)cc2Cl)ccc1C#N [S-enantiomer (1), S-enantiomer of methyl α-[2-cyano-5-(2-chloro-4-trifluoromethylphenoxy)phenoxy]propionate, reference compound] | 1 | 0 | 1 | 1 | 0 | 1 | 0 | 2 | 1 | 1 | 0 |  |  |  |  |  |  |  |  |  | 
